Experiments:
Test in all cases: Post-emergence test experiment (greenhouse pot, spray at 2-3 leaf stage)
Assay type in all cases: in vivo
Conditions in all cases: 1000 g/ha; post-emergence spray at 2-3 leaf stage; assessed after 3 weeks; fresh weight inhibition rate
Abutilon theophrasti = tested on: Abutilon theophrasti
Text: (§1) The activity level standard of harmful plants destruction (i. e. growth inhibition rate) is as follows: • Level 5: the growth inhibition rate is greater than 85%; • Level 4: the growth inhibition rate is equal to or greater than 60% and less than 85%; • Level 3: the growth inhibition rate is equal to or greater than 40% and less than 60%; • Level 2: the growth inhibition rate is equal to or greater than 20% and less than 40%; • Level 1: the growth inhibition rate is equal to or greater than 5% and less than 20%; • Level 0: the growth inhibition rate is less than 5%;
(§2) The above described growth inhibition rate is fresh weight inhibition rate.
(§3) Post-emergence test experiment: Monocotyledonous and dicotyledonous weed seeds and main crop seeds (i. e. wheat, corn, rice, soybean, cotton, oilseed, millet and sorghum.) were put into a plastic pot loaded with soil. Then covered with 0.5-2 cm soil, the seeds were allowed to grow in good greenhouse environment. The test plants were treated at 2-3 leaf stage 2 weeks after sowing. The test compounds of the invention were dissolved with acetone respectively, then added with tween-80, and using 1.5 liters per hectare of an emulsible concentrate of methyl oleate as a synergist, and diluted by certain amount of water to certain concentration. The solution was sprayed to the plants with a sprayer. Then the plants were cultured for 3 weeks in the greenhouse, and the experiment result of weed controlling effect after 3 weeks was listed in tables 3-4.

Monochoria vaginalis = tested on: Monochoria vaginalis
Text: as §1, §2, §3

Galium spurium = tested on: Galium spurium
Text: as §1, §2, §3

Echinochloa crusgalli = tested on: Echinochloa crusgalli
Text: as §1, §2, §3

Digitaria sanguinalis = tested on: Digitaria sanguinalis
Text: as §1, §2, §3

SMILES	Activity level (growth inhibition rate) Abutilon theophrasti (Abutilon theophrasti)	Activity level (growth inhibition rate) Monochoria Vaginalis (Monochoria vaginalis)	Activity level (growth inhibition rate) Galium spurium (Galium spurium)	Activity level (growth inhibition rate) Echinochloa crusgalli (Echinochloa crusgalli)	Activity level (growth inhibition rate) Digitaria sanguinalis (Digitaria sanguinalis)
CC(Oc1nc(F)c(Cl)c(NC(=O)c2ccccc2)c1Cl)C(=O)OCc1ccccc1 (stereo not shown) [Compound 194]	5 (Level 5: the growth inhibition rate is greater than 85%)	5 (Level 5: the growth inhibition rate is greater than 85%)	5 (Level 5: the growth inhibition rate is greater than 85%)	5 (Level 5: the growth inhibition rate is greater than 85%)	5 (Level 5: the growth inhibition rate is greater than 85%)
COc1ccc2ccc(COC(=O)C(C)Oc3nc(F)c(Cl)c(N)c3Cl)cc2c1 (stereo not shown) [Compound 183]	5 (Level 5: the growth inhibition rate is greater than 85%)	5 (Level 5: the growth inhibition rate is greater than 85%)	5 (Level 5: the growth inhibition rate is greater than 85%)	5 (Level 5: the growth inhibition rate is greater than 85%)	5 (Level 5: the growth inhibition rate is greater than 85%)
CCc1c(OC(C)C(=O)SCc2ccccc2)nc(C(F)(F)F)c(CC)c1N (stereo not shown) [Compound 8]	5 (Level 5: the growth inhibition rate is greater than 85%)	5 (Level 5: the growth inhibition rate is greater than 85%)	5 (Level 5: the growth inhibition rate is greater than 85%)	5 (Level 5: the growth inhibition rate is greater than 85%)	5 (Level 5: the growth inhibition rate is greater than 85%)
CC(Oc1nc(F)c(Cl)c(N)c1Cl)C(=O)SCc1cccc(C#N)c1 (stereo not shown) [Compound 226]	5 (Level 5: the growth inhibition rate is greater than 85%)	5 (Level 5: the growth inhibition rate is greater than 85%)	5 (Level 5: the growth inhibition rate is greater than 85%)	5 (Level 5: the growth inhibition rate is greater than 85%)	5 (Level 5: the growth inhibition rate is greater than 85%)
CC(Oc1nc(F)c(Cl)c(N)c1Cl)C(=O)SCc1ccon1 (stereo not shown) [Compound 145]	5 (Level 5: the growth inhibition rate is greater than 85%)	5 (Level 5: the growth inhibition rate is greater than 85%)	5 (Level 5: the growth inhibition rate is greater than 85%)	5 (Level 5: the growth inhibition rate is greater than 85%)	5 (Level 5: the growth inhibition rate is greater than 85%)
CC(Oc1nc(F)c(Cl)c(N)c1Cl)C(=O)OCc1nccn1C (stereo not shown) [Compound 130]	5 (Level 5: the growth inhibition rate is greater than 85%)	5 (Level 5: the growth inhibition rate is greater than 85%)	5 (Level 5: the growth inhibition rate is greater than 85%)	5 (Level 5: the growth inhibition rate is greater than 85%)	5 (Level 5: the growth inhibition rate is greater than 85%)
Cc1ncc(COC(=O)C(C)Oc2nc(F)c(Cl)c(N)c2Cl)s1 (stereo not shown) [Compound 157]	5 (Level 5: the growth inhibition rate is greater than 85%)	5 (Level 5: the growth inhibition rate is greater than 85%)	5 (Level 5: the growth inhibition rate is greater than 85%)	5 (Level 5: the growth inhibition rate is greater than 85%)	5 (Level 5: the growth inhibition rate is greater than 85%)
CC(Oc1nc(F)c(Cl)c(N)c1Cl)C(=O)OCc1cnccn1 (stereo not shown) [Compound 121]	5 (Level 5: the growth inhibition rate is greater than 85%)	5 (Level 5: the growth inhibition rate is greater than 85%)	5 (Level 5: the growth inhibition rate is greater than 85%)	5 (Level 5: the growth inhibition rate is greater than 85%)	5 (Level 5: the growth inhibition rate is greater than 85%)
CC(Oc1nc(F)c(Cl)c(N)c1Cl)C(=O)SCCc1cnno1 (stereo not shown) [Compound 152]	5 (Level 5: the growth inhibition rate is greater than 85%)	5 (Level 5: the growth inhibition rate is greater than 85%)	5 (Level 5: the growth inhibition rate is greater than 85%)	5 (Level 5: the growth inhibition rate is greater than 85%)	5 (Level 5: the growth inhibition rate is greater than 85%)
CC(Oc1nc(F)c(Cl)c(N)c1Cl)C(=O)SCc1ccccc1Cl (stereo not shown) [Compound 227]	5 (Level 5: the growth inhibition rate is greater than 85%)	5 (Level 5: the growth inhibition rate is greater than 85%)	5 (Level 5: the growth inhibition rate is greater than 85%)	5 (Level 5: the growth inhibition rate is greater than 85%)	5 (Level 5: the growth inhibition rate is greater than 85%)
Cc1cc(CSC(=O)C(C)Oc2nc(F)c(Cl)c(N)c2Cl)ccn1 (racemic) [Compound 118]	5 (Level 5: the growth inhibition rate is greater than 85%)	5 (Level 5: the growth inhibition rate is greater than 85%)	5 (Level 5: the growth inhibition rate is greater than 85%)	5 (Level 5: the growth inhibition rate is greater than 85%)	5 (Level 5: the growth inhibition rate is greater than 85%)
CC(Oc1nc(F)c(Cl)c(N)c1Cl)C(=O)OCc1cccc(N)c1 (stereo not shown) [Compound 90]	5 (Level 5: the growth inhibition rate is greater than 85%)	5 (Level 5: the growth inhibition rate is greater than 85%)	5 (Level 5: the growth inhibition rate is greater than 85%)	5 (Level 5: the growth inhibition rate is greater than 85%)	5 (Level 5: the growth inhibition rate is greater than 85%)
Cc1nc(OC(C)C(=O)OCc2ccccc2)c(C)c(N)c1C (stereo not shown) [Compound 19]	5 (Level 5: the growth inhibition rate is greater than 85%)	5 (Level 5: the growth inhibition rate is greater than 85%)	5 (Level 5: the growth inhibition rate is greater than 85%)	5 (Level 5: the growth inhibition rate is greater than 85%)	5 (Level 5: the growth inhibition rate is greater than 85%)
CC(Oc1nc(F)c(Cl)c(N)c1Cl)C(=O)SCc1nnco1 (stereo not shown) [Compound 149]	5 (Level 5: the growth inhibition rate is greater than 85%)	5 (Level 5: the growth inhibition rate is greater than 85%)	5 (Level 5: the growth inhibition rate is greater than 85%)	5 (Level 5: the growth inhibition rate is greater than 85%)	5 (Level 5: the growth inhibition rate is greater than 85%)
